Here are results for one compound from US9828588B2, “Methods and compositions for producing active vitamin K-dependent proteins” (The University of North Carolina at Chapel Hill, priority 2005, dated 2017).

This assay relates to P450 2C9. Put plainly: Average warfarin maintenance dose in patients by P450 2C9 genotype. Conditions: patients heterozygous for P450 2C9*3, n=8. The class given is in vivo, human. An excerpt:
Subjects were obtained from the UNC Coagulation Clinic in the Ambulatory Care Center. Informed consent was obtained by a trained genetic counselor. Subjects not fluent in English were excluded because of the lack of translators and the requirement for consent.
The difference of average dose between different genotypes was compared by analysis of variance (ANOVA) using SAS version 8.0 (SAS, Inc., Cary, N.C.). A two-sided p value less than 0.05 was considered significant.
Each marker was first analyzed independently.
SAS was used first to do a repeated procedure in which a series of factors (race, gender, smoking history, hepatic diseases, SNPs at cytochrome […] gene, etc.) were examined to identify factors, excluding VKOR SNPs, which might affect dosage.

`CC(=O)CC(c1ccccc1)c1c(O)c2ccccc2oc1=O` (stereo not shown) [warfarin] gave an average warfarin dose of 22.4±4.34 mg per week.
